Literature values as cited in patent publication US20260256792A1, “TREATMENT OF CHRONIC SPONTANEOUS URTICARIA BY ADMINISTERING (R)-2-[3-[4-AMINO-3-(2-FLUORO-4-PHENOXY-PHENYL)PYRAZOLO[3,4-D]PYRIMIDIN-1-YL]PIPERIDINE-1-CARBONYL]-4-METHYL-4-[4-(OXETAN-3-YL)PIPERAZIN-1-YL]PENT-2-ENENITRILE” (priority 2023, published 2026).

Test system: rat Arthus reaction
Conditions: cited from earlier work

For CC(C)(C=C(C#N)C(=O)N1CCC[C@@H](n2nc(-c3ccc(Oc4ccccc4)cc3F)c3c(N)ncnc32)C1)N1CCN(C2COC2)CC1 [rilzabrutinib, (R)-2-[3-[4-amino-3-(2-fluoro-4-phenoxy-phenyl)pyrazolo[3,4-d]pyrimidin-1-yl]piperidine-1-carbonyl]-4-methyl-4-[4-(oxetan-3-yl)piperazin-1-yl]pent-2-enenitrile], the “rat Arthus reaction” value is given as “blockade”.
